This is an account of results in the supplement of paper PMC11208160.
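Note: IS621 recombinase and bridge RNA in Escherichia coli cells.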

The series in a line: recombinant barcode read abundance after kanamycin selection (control-corrected) (log10(CPM+1)); higher = more efficient recombination; sequences stand for … in AGTGCAGAGAAAATCGGCCAGTTTTCTCTGCCTGCAGTCCGCATGCCGT…AGATTTATGCAGCGGACTGCCTTTCTCCCAAAGTGATAAACCGGACAGTATCATGGACCGGTTTTCCCGGTAATCCGTATTTGCAAGGTTGGTTTCACT; site = the 11-nt target. The method in brief: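 Pooled E. coli screen pairing targets with IS621 bridge RNA target-binding loops. Each oligo (promoter, target, barcode, J23119-driven first 104 bridge RNA bases) was Gibson-cloned into a vector with the remaining 73 bp and T7-inducible recombinase, then co-electroporated with a donor plasmid. Two replicates each were plated on chloramphenicol/ampicillin LB agar (control) or chloramphenicol/ampicillin/kanamycin with 0.1 mM IPTG. Recombination efficiency is recombinant-junction barcode counts as CPM, averaged, control-corrected, reported as log10(CPM+1).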
Consider “GCAACCTCTTGGGTTCTAACCTGTTGCTA (site CGCTGACCTAG)”, for which the “recombinant barcode read abundance (log10)” value was found to be 0.049.

As to “GCAACCTCTTGGGTTCTAACCTGTTGCTA (site GCAACCTCTTA)”, the “recombinant barcode read abundance (log10)” value was determined as 1.92.

Regarding “GCAAGTACTTGGGTTCTAACCTGTTGCAG (site AGGTTAGCTTA)”, the “recombinant barcode read abundance (log10)” value is 0.106.

In the case of “GCAAGTACTTGGGTTCTAACCTGTTGCAG (site GCAAGTACTCT)”, the “recombinant barcode read abundance (log10)” value came out at 1.95. Take “GCACAGACTTGGGTTCTAACCTGTTGCCT (site GCAAAGCCTAG)”: the “recombinant barcode read abundance (log10)” value turned out to be 0.207. For “GCACAGACTTGGGTTCTAACCTGTTGCCT (site GCACAGACTAG)”, the “recombinant barcode read abundance (log10)” value came out at 2.09. Take “GCACAGTCTTGGGTTCTAACCTGTTGCTT (site CCATAGTCTAA)”: the “recombinant barcode read abundance (log10)” value came to 0.0514. In the case of “GCACAGTCTTGGGTTCTAACCTGTTGCTT (site GCACAGTCTAA)”, the “recombinant barcode read abundance (log10)” value amounted to 1.93. Regarding “GCACGAACTTGGGTTCTAACCTGTTGCCT (site GCACGAACTAG)”, the “recombinant barcode read abundance (log10)” value was 1. Consider “GCACGAACTTGGGTTCTAACCTGTTGCCT (site GCCCGAACTAG)”, for which the “recombinant barcode read abundance (log10)” value came out at 0.133. For the sequence “GCACGAACTTGGGTTCTAACCTGTTGCCT (site GCGCGAACTAG)”, the “recombinant barcode read abundance (log10)” value is 0.0581.

On to “GCACGAACTTGGGTTCTAACCTGTTGCCT (site GCTCGAACTAG)”, for which the “recombinant barcode read abundance (log10)” value was 0.0171. Take “GCACTACCTTGGGTTCTAACCTGTTGCCT (site GCACAACCTAG)”: the “recombinant barcode read abundance (log10)” value amounted to 0.0611. The figure for “GCACTACCTTGGGTTCTAACCTGTTGCCT (site GCACCACCTAG)” is 0.534; for “GCACTACCTTGGGTTCTAACCTGTTGCCT (site GCACGACCTAG)” it is 0.166. For the sequence “GCACTACCTTGGGTTCTAACCTGTTGCCT (site GCACTACCTAG)”, the “recombinant barcode read abundance (log10)” value was 1.37. On to “GCACTGCCTTGGGTTCTAACCTGTTGCCT (site GCACTGCCTAG)”, for which the “recombinant barcode read abundance (log10)” value was found to be 1.31. For “GCACTGCCTTGGGTTCTAACCTGTTGCCT (site GCCCTGCCTAG)”, the “recombinant barcode read abundance (log10)” value is 0.233.

As for “GCAGCGACTTGGGTTCTAACCTGTTGCCT (site GCAGCGACTAG)”, the “recombinant barcode read abundance (log10)” value was found to be 1.78. As for “GCAGCGACTTGGGTTCTAACCTGTTGCCT (site GCCGCGACTAG)”, the “recombinant barcode read abundance (log10)” value is 0.148. For the sequence “GCAGCGACTTGGGTTCTAACCTGTTGCCT (site GCGGCGACTAG)”, the “recombinant barcode read abundance (log10)” value was determined as 0.277. In the case of “GCAGCGACTTGGGTTCTAACCTGTTGCCT (site GCTGCGACTAG)”, the “recombinant barcode read abundance (log10)” value was 0.194. With “GCAGGGTCTTGGGTTCTAACCTGTTGCTT (site GCAGGGTCTAA)”, the “recombinant barcode read abundance (log10)” value is 2.4. Consider “GCAGGGTCTTGGGTTCTAACCTGTTGCTT (site GCCGGGTCTAA)”, for which the “recombinant barcode read abundance (log10)” value worked out at 0.658.

Take “GCAGGGTCTTGGGTTCTAACCTGTTGCTT (site GCGGGGTCTAA)”: the “recombinant barcode read abundance (log10)” value worked out at 0.646. The figure for “GCAGGGTCTTGGGTTCTAACCTGTTGCTT (site GCTGGGTCTAA)” is 0.355; for “GCAGGTCCTTGGGTTCTAACCTGTTGCCT (site GCAGGTCCTAG)” it is 0.788. Turning to “GCAGGTCCTTGGGTTCTAACCTGTTGCCT (site GCCGGTCCTAG)”, the “recombinant barcode read abundance (log10)” value stood at 0.512. The figure for “GCAGGTCCTTGGGTTCTAACCTGTTGCCT (site GCGGGTCCTAG)” is 0.744; for “GCAGGTCCTTGGGTTCTAACCTGTTGCCT (site GCTGGTCCTAG)” it is 0.397; for “GCAGTAGCTTGGGTTCTAACCTGTTGCCA (site CCGGTAGCTTG)” it is 0.188. The figure for “GCAGTAGCTTGGGTTCTAACCTGTTGCCA (site GCAGTAGCTTG)” is 0.382; for “GCATATACTTGGGTTCTAACCTGTTGCGT (site AGTCCCGCTTG)” it is 0. Regarding “GCATATACTTGGGTTCTAACCTGTTGCGT (site GCATATACTAC)”, the “recombinant barcode read abundance (log10)” value was found to be 2.15. For the sequence “GCATCGGCTTGGGTTCTAACCTGTTGCCT (site GCATCGGCTAG)”, the “recombinant barcode read abundance (log10)” value came to 1.22. With “GCATCGGCTTGGGTTCTAACCTGTTGCCT (site GCCTCGGCTAG)”, the “recombinant barcode read abundance (log10)” value worked out at 0.0153. Take “GCATCGGCTTGGGTTCTAACCTGTTGCCT (site GCGTCGGCTAG)”: the “recombinant barcode read abundance (log10)” value was 0.0974. On to “GCATCGGCTTGGGTTCTAACCTGTTGCCT (site GCTTCGGCTAG)”, for which the “recombinant barcode read abundance (log10)” value came to 0.0102. For “GCATGACCTTGGGTTCTAACCTGTTGCAG (site CACAATACTAG)”, the “recombinant barcode read abundance (log10)” value was 0.343. Regarding “GCATGACCTTGGGTTCTAACCTGTTGCAG (site GCATGACCTCT)”, the “recombinant barcode read abundance (log10)” value came to 1.23. On to “GCATGGACTTGGGTTCTAACCTGTTGCAG (site GCAAGGACTCT)”, for which the “recombinant barcode read abundance (log10)” value stood at 0.878.

For the sequence “GCATGGACTTGGGTTCTAACCTGTTGCAG (site GCACGGACTCT)”, the “recombinant barcode read abundance (log10)” value is 1.92. As for “GCATGGACTTGGGTTCTAACCTGTTGCAG (site GCAGGGACTCT)”, the “recombinant barcode read abundance (log10)” value is 0.241. Consider “GCATGGACTTGGGTTCTAACCTGTTGCAG (site GCATGGACTCT)”, for which the “recombinant barcode read abundance (log10)” value came out at 2.24. The figure for “GCCAACCCTTGGGTTCTAACCTGTTGCCT (site GCCAACCCTAA)” is 0.111; for “GCCAACCCTTGGGTTCTAACCTGTTGCCT (site GCCAACCCTAC)” it is 0.0192; for “GCCAACCCTTGGGTTCTAACCTGTTGCCT (site GCCAACCCTAG)” it is 0.326. As to “GCCAACCCTTGGGTTCTAACCTGTTGCCT (site GCCAACCCTAT)”, the “recombinant barcode read abundance (log10)” value turned out to be 0.0781. Then “GCCAAGCCTTGGGTTCTAACCTGTTGCTG (site GCCAAGCCTCA)”, with 0.257; and “GCCAAGCCTTGGGTTCTAACCTGTTGCTG (site TCCAACCCTCA)”, with 0.0182.

As for “GCCAAGGCTTGGGTTCTAACCTGTTGCCT (site AGTTTCACTTA)”, the “recombinant barcode read abundance (log10)” value is 0.0355. Regarding “GCCAAGGCTTGGGTTCTAACCTGTTGCCT (site GCCAAGGCTAG)”, the “recombinant barcode read abundance (log10)” value is 0.407.

As to “GCCACGCCTTGGGTTCTAACCTGTTGCAG (site GCCACGCCTCT)”, the “recombinant barcode read abundance (log10)” value was found to be 0.115. Regarding “GCCACGCCTTGGGTTCTAACCTGTTGCAG (site GCCCCGCCTCT)”, the “recombinant barcode read abundance (log10)” value was 0.0522.

Turning to “GCCACGCCTTGGGTTCTAACCTGTTGCAG (site GCCGCGCCTCT)”, the “recombinant barcode read abundance (log10)” value came to 0.053.

In the case of “GCCACGCCTTGGGTTCTAACCTGTTGCAG (site GCCTCGCCTCT)”, the “recombinant barcode read abundance (log10)” value is 0.389. Then “GCCATGTCTTGGGTTCTAACCTGTTGCTA (site ACCTTGTCTTA)”, with 0.0829; and “GCCATGTCTTGGGTTCTAACCTGTTGCTA (site GCCATGTCTTA)”, with 0.145. Then “GCCCGTCCTTGGGTTCTAACCTGTTGCCG (site CTCCGTCCTCG)”, with 0.116.
